# Measured values as given in PubChem BioAssay AID1963441 (Molecular Pharmacology Branch, DTP, NCI, 2024).
# Where “and” joins values, the source holds several entries; their conditions need not be identical. Equal values may be shown once.
# System: NCI-H1876 complex spheroid growth, % test/control
# Assay: Anticancer human tumor NCI-H1876 cell line growth inhibition [Asc];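 further: compound exposure lasted 7 days starting three days after seeding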;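 on viability, T/C: 100% = DMSO vehicle control wells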
# Conditions: for viability, T/C: stronger effect = lower value
# Procedure, shortened: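 Tumor cells were grown as multicellular spheroids with stromal HUVEC and mesenchymal stem cells and treated singly or in combination. Concentrations fell in half-log steps from the clinical Cmax, or from 10 microM where none was known.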
# [1] = curve of first compound, second compound 0.0316 µM
# [2] = curve of first compound, second compound 0.1 µM
# [3] = curve of first compound, second compound 0.316 µM
# [4] = curve of first compound, second compound 1 µM
smiles,measurement,setting,value
Cc1nc(N2CCC3(CC2)COC(C)C3N)c(CO)nc1Sc1ccnc(N)c1Cl (stereo unspecified) + CNC(C)C(=O)NC1CN(S(=O)(=O)c2cccc(S(=O)(=O)N3CCC4CCC(C(=O)NC(c5ccccc5)c5ccccc5)N4C(=O)C(NC(=O)C(C)NC)C3)c2)CCC2CCC(C(=O)NC(c3ccccc3)c3ccccc3)N2C1=O,IC50,"curve of first compound, second compound 0.00316 µM",> 3 µM
same,IC50,"curve of first compound, second compound 0.01 µM",> 3 µM
same,IC50,[1],> 3 µM
same,IC50,[2],> 3 µM
same,IC50,[3],> 3 µM
same,IC50,[4],> 3 µM
same,"viability, T/C","second compound 0.00316 µM, first compound 0.00949 µM",100%
same,"viability, T/C","second compound 0.00316 µM, first compound 0.03 µM",92.7%
same,"viability, T/C","second compound 0.00316 µM, first compound 0.0949 µM",91.2%
same,"viability, T/C","second compound 0.00316 µM, first compound 0.3 µM",80.7%
same,"viability, T/C","second compound 0.00316 µM, first compound 0.949 µM",92.6%
same,"viability, T/C","second compound 0.00316 µM, first compound 3 µM",79.8%
same,"viability, T/C","second compound 0.01 µM, first compound 0.00949 µM",91.7%
same,"viability, T/C","second compound 0.01 µM, first compound 0.03 µM",91.9%
same,"viability, T/C","second compound 0.01 µM, first compound 0.0949 µM",92.7%
same,"viability, T/C","second compound 0.01 µM, first compound 0.3 µM",81.2%
same,"viability, T/C","second compound 0.01 µM, first compound 0.949 µM",85.7%
same,"viability, T/C","second compound 0.01 µM, first compound 3 µM",92.1%
same,"viability, T/C","second compound 0.0316 µM, first compound 0.00949 µM",94.4%
same,"viability, T/C","second compound 0.0316 µM, first compound 0.03 µM",86.1%
same,"viability, T/C","second compound 0.0316 µM, first compound 0.0949 µM",98.8%
same,"viability, T/C","second compound 0.0316 µM, first compound 0.3 µM",84.8%
same,"viability, T/C","second compound 0.0316 µM, first compound 0.949 µM",87.6%
same,"viability, T/C","second compound 0.0316 µM, first compound 3 µM",89%
same,"viability, T/C","second compound 0.1 µM, first compound 0.00949 µM",93.9%
same,"viability, T/C","second compound 0.1 µM, first compound 0.03 µM",88.4%
same,"viability, T/C","second compound 0.1 µM, first compound 0.0949 µM",82.9%
same,"viability, T/C","second compound 0.1 µM, first compound 0.3 µM",86.5%
same,"viability, T/C","second compound 0.1 µM, first compound 0.949 µM",86.4%
same,"viability, T/C","second compound 0.1 µM, first compound 3 µM",84.3%
same,"viability, T/C","second compound 0.316 µM, first compound 0.00949 µM",94%
same,"viability, T/C","second compound 0.316 µM, first compound 0.03 µM",93.8%
same,"viability, T/C","second compound 0.316 µM, first compound 0.0949 µM",87.9%
same,"viability, T/C","second compound 0.316 µM, first compound 0.3 µM",92.7%
same,"viability, T/C","second compound 0.316 µM, first compound 0.949 µM",85.9%
same,"viability, T/C","second compound 0.316 µM, first compound 3 µM",77.2%
same,"viability, T/C","second compound 1 µM, first compound 0.00949 µM",94%
same,"viability, T/C","second compound 1 µM, first compound 0.03 µM",91.8%
same,"viability, T/C","second compound 1 µM, first compound 0.0949 µM",94.4%
same,"viability, T/C","second compound 1 µM, first compound 0.3 µM",90.5%
same,"viability, T/C","second compound 1 µM, first compound 0.949 µM",84.5%
same,"viability, T/C","second compound 1 µM, first compound 3 µM",74.8%
Cn1ncnc1[C@H]1c2n[nH]c(=O)c3cc(F)cc(c23)N[C@@H]1c1ccc(F)cc1,"viability, T/C",compound 0.000316 µM,93.5% and 106% and 102%
same,"viability, T/C",compound 0.001 µM,90.9% and 86.1% and 110%
same,"viability, T/C",compound 0.00316 µM,95.7% and 88.1% and 105%
same,"viability, T/C",compound 0.01 µM,102% and 96.1% and 94.6%
same,"viability, T/C",compound 0.0316 µM,98.4% and 99.3% and 105%
same,"viability, T/C",compound 0.1 µM,86% and 101% and 97.6%
same,IC50,curve of compound,> 0.1 µM
C=C(F)C(=O)N1CCN(c2nc(OCC3CCCN3C)nc3c2CCN(c2cccc4cccc(Cl)c24)C3)CC1CC#N (stereo unspecified) + Cc1c(S(C)(=O)=O)c(-c2cc(F)cc(N3CCN(c4ccc(NS(=O)(=O)c5ccc(NC(CCN6CCC(C(=O)OCCCP(=O)(O)O)CC6)CSc6ccccc6)c(S(=O)(=O)C(F)(F)F)c5)cc4)CC3)c2)c(-c2ccc(Cl)cc2)n1C(C)C,IC50,[1],5.7 µM
same,IC50,[2],5.38 µM
same,IC50,[3],5.65 µM
same,IC50,[4],5.54 µM
same,IC50,"curve of first compound, second compound 3.16 µM",5.15 µM
same,IC50,"curve of first compound, second compound 10 µM",5.43 µM
same,"viability, T/C","second compound 0.0316 µM, first compound 0.0316 µM",96.7%
same,"viability, T/C","second compound 0.0316 µM, first compound 0.1 µM",97.8%
same,"viability, T/C","second compound 0.0316 µM, first compound 0.316 µM",102%
same,"viability, T/C","second compound 0.0316 µM, first compound 1 µM",90.5%
same,"viability, T/C","second compound 0.0316 µM, first compound 3.16 µM",97.5%
same,"viability, T/C","second compound 0.0316 µM, first compound 10 µM",5.25%
same,"viability, T/C","second compound 0.1 µM, first compound 0.0316 µM",83.6%
same,"viability, T/C","second compound 0.1 µM, first compound 0.1 µM",86.1%
same,"viability, T/C","second compound 0.1 µM, first compound 0.316 µM",91.9%
same,"viability, T/C","second compound 0.1 µM, first compound 1 µM",94%
same,"viability, T/C","second compound 0.1 µM, first compound 3.16 µM",98.1%
same,"viability, T/C","second compound 0.1 µM, first compound 10 µM",2.68%
same,"viability, T/C","second compound 0.316 µM, first compound 0.0316 µM",104%
same,"viability, T/C","second compound 0.316 µM, first compound 0.1 µM",94.9%
same,"viability, T/C","second compound 0.316 µM, first compound 0.316 µM",96.5%
same,"viability, T/C","second compound 0.316 µM, first compound 1 µM",98.8%
same,"viability, T/C","second compound 0.316 µM, first compound 3.16 µM",102%
same,"viability, T/C","second compound 0.316 µM, first compound 10 µM",1.38%
same,"viability, T/C","second compound 1 µM, first compound 0.0316 µM",91.5%
same,"viability, T/C","second compound 1 µM, first compound 0.1 µM",97.1%
same,"viability, T/C","second compound 1 µM, first compound 0.316 µM",94.1%
same,"viability, T/C","second compound 1 µM, first compound 1 µM",92%
same,"viability, T/C","second compound 1 µM, first compound 3.16 µM",99.3%
same,"viability, T/C","second compound 1 µM, first compound 10 µM",2.82%
same,"viability, T/C","second compound 3.16 µM, first compound 0.0316 µM",90.6%
same,"viability, T/C","second compound 3.16 µM, first compound 0.1 µM",93.6%
same,"viability, T/C","second compound 3.16 µM, first compound 0.316 µM",97.8%
same,"viability, T/C","second compound 3.16 µM, first compound 1 µM",88.5%
same,"viability, T/C","second compound 3.16 µM, first compound 3.16 µM",86.6%
same,"viability, T/C","second compound 3.16 µM, first compound 10 µM",0.42%
same,"viability, T/C","second compound 10 µM, first compound 0.0316 µM",95.7%
same,"viability, T/C","second compound 10 µM, first compound 0.1 µM",103%
same,"viability, T/C","second compound 10 µM, first compound 0.316 µM",81.9%
same,"viability, T/C","second compound 10 µM, first compound 1 µM",91.3%
same,"viability, T/C","second compound 10 µM, first compound 3.16 µM",95%
same,"viability, T/C","second compound 10 µM, first compound 10 µM",1.21%
